Test results reported in patent publication US20090047218A1, “Method for producing albumin conjugates comprising an X-ray contrast medium as the active substance” (Albupharm Heidelberg GmbH & Co. KG, priority 2005, published 2009).

Assay: Stability of iodine-containing X-ray contrast medium against radiation (iodine-starch reaction)
Format: physicochemical
Conditions: about 40 mg in 40 ml 0.1% starch solution
Procedure: Approximately 40 mg 2,3,5-triiodobenzoic acid (TIB) or another X-ray contrast medium that can be obtained commercially (diatrizoic acid or iotalamic acid etc.) is dissolved in 40 ml of a 0.1% starch solution while gently heating. 20 ml is in each case distributed to two Petri dishes (diameter 11.5 cm). Dish 1 is placed in full sunlight for 1 hour. Dish 2 is irradiated at a distance of 11 cm with a UV hand-held lamp (254 nm, 14 μW/cm^2).
This is even more significant because the energy of the UV irradiation (like the intensity of the irradiation source used) is approximately 100-fold lower than that of the X-ray irradiation of a computer tomograph.

SMILES: O=C(O)c1cc(I)cc(I)c1I [2,3,5-triiodobenzoic acid]
- colour of the solution (iodine-starch reaction) after exposure to daylight (dish 1, full sunlight for 1 hour): still colourless
- colour of the solution (iodine-starch reaction) after UV irradiation (dish 2, UV hand-held lamp 254 nm, 14 μW/cm^2, distance 11 cm): typical, intensive blue staining of the iodine-starch reaction
